Source: patent publication US20250320443A1, “Human Brain Organoid, methods for making the brain organoid, and methods of using the brain organoid for high throughput rapid screening and/or evaluation of agents” (NeyroblastGX LLC, priority 2023, published 2025)

Key:
[1] = system: blood CSF barrier brain OrG (ChP OrG); test: ChP OrG drug permeability into CSF (optical density of collected CSF); assay type: cell-based, human; details: 72 h, SLCP Cur 500 μM, CSF collected via syringe
Procedure: (§1) FIG. 6A-6H. ChP OrG efficiently screens drug permeability. (FIG. 6A) We have used curcumin (Cur), a natural polyphenolic antioxidant that can disaggregate Amyloid beta (AB) and tau. (FIG. 6B) We have prepared the Cur with H2O and lipids to generate a solid lipid curcumin particle (SLCP). […] (FIG. 6D-6F) We added SLCP and non-formulated (H2O dissolved) Cur to the blood CSF barrier brain OrG (ChP OrG) for 72 h and obtained images. (FIG. 6G) We then collected CSF via a syringe and processed it to measure optical density using a plate reader to determine whether SLCP Cur (500 μM) was permeable into CSF. […] Our novel B-CSFb grown on an HT electrode plate is highly efficient in studying drug permeability on the HT scale and provides insight into using our ChP OrG to accelerate the drug development process for various CNS diseases. Scale bar 100 μm.
To generate ChP OrG, we use methods similar to those used to generate cCerebral OrG, except for the composition of OrGspheroid SRB media, which contained 50% KSR, 0.1% lipid-rich albumin (AlbuMAX), including all other components as stated in Example 1. For ChP OrG, neural induction was up to 9 days. Neural induction medium was the same as Example 2. Further, neural-induced OrGspheroid (>500 μm) was seeded with gel-matrix domes with a volume of OrGspheroid to MvECs at a 1:20 ratio. […]

[2] = Preparation of curcumin with H2O (visual); assay type: physicochemical; details: glass vial, non-formulated
Procedure: as §1

[3] = system: synaptophysin and PSD-95 in cCerebral OrG; test: ICC of synaptic marker proteins in cCerebral OrG injected with AD toxic proteins; assay type: cell-based, human; details: AB or tau alone, injected twice with 10-50 μl (1 mg/ml)
Procedure: FIG. 8A-8D. Verify compatibility to screening NGL ready-to-use brain OrG in other screening platforms with multiple agents. (FIG. 8A) NGL cCerebral was injected twice with 10-50 μl (1 mg/ml) of Alzheimer's disease (AD) toxic proteins (AB and tau oligomers). (FIG. 8B) We found AB and tau together, especially 50 μg concentration, reduced in higher levels of pre- and post-synaptic density marker proteins (synaptophysin and PSD-95) compared to 10 μg concentrations using ICC. […] (FIG. 8C) We compared synaptic loss with the electrode plate signal developed by Applied Biophysics (ABP). We have plated our cCerebral OrG onto ABP electrodes with gel-matrix twice coating to attach efficiently onto cCerebral OrG onto electrodes. Usually, marketed electrode attaching floating OrG tends to be challenging. OrG often slips or moves away from the electrode, thus needing twice or triple-coating layers with gels, providing a great insight into our floating electrode plate novelty compared to other marketed electrodes. After the cCerebral OrG attachment was maintained and grown on the electrode plate for one week and treated with or without the combination of AB and tau (10 and 50 μg).
ICC is a common cellular protein or antigen-detecting and visualization technique that can recognize the target of interest or specific marker expression in cells via quantification imaging. […]

brain OrG = test: NGL HT electrode plate signal of brain OrG; assay type: cell-based, human; details: 64000 Hz
Excerpt: HT electroconductive sensing array combined with our optimized brain OrG is the first innovative technology that can be marketed for floating brain OrG for screening pathogens, drugs, and toxicity at a rapid and robust scale. Brain OrG-specific shape 1-3 mm range grown on an electroconductive plate designed and developed by NGL with pay-based service to obtain ECIS base electrode with a desired signal with or without agents. ECIS here refers to electric cell-substrate impedance sensing. We first developed 8 well plates with an electrode. […] We used a nanofarads capacitance (nF) signal curve at 64000 Hz. We determined that the media sample (without OrG, baseline) average signal is 3.7 nF compared to cerebral OrG (˜2 nF), and the same measurement was also acquired by resistance (Ohms).
To determine HT screening various agents, we designed and developed a next-generation HT electrode plate where brain OrG can grow in floating conditions with electrode chambers that can control OrG size without batch-to-batch variations. To develop these electrode sensor chambers (FIG. 7A-7B), we have designed and developed a typical 8×12 configuration that allows 96 samples to be measured and can be upgraded to 384 wells. […] These converters will sample at four times the excitation frequency, thus allowing both the amplitude and phase of the signal at V1 to V2 be measured with an algorithm.

Row | Molecule | Cur concentration in CSF (permeable into CSF / B-CSFb) [1] | Cur concentration in CSF (permeable into CSF / B-CSFb) ([1]; listed as unformulated Cur) | behaviour when prepared with H2O [2] | synaptic proteins (synaptophysin and PSD-95) [3] | brain OrG-derived toxic response signal compared to untreated brain OrG (brain OrG)
1 | COc1cc(/C=C/C(=O)CC(=O)/C=C/c2ccc(O)c(OC)c2)ccc1O [non-formulated Cur, curcumin] | not detected in CSF | undetected in CSF | precipitated on the bottom of the glass vial |  | 
2 | AB: synthetic amyloid-beta (AB) oligomers, Alzheimer's disease toxic protein |  |  |  | unable to significantly reduce synaptic proteins | significantly and sensitively differentiated
